Experimental data: article PMC4294347, “Therapeutic potential of ERK5 targeting in triple negative breast cancer” (Oncotarget, 2014)

Target: T1, ERK5 (Homo sapiens, UniProt Q13164)
T1 construct: gene MAPK7; endogenous ERK5 immunoprecipitated from EGF-treated MDA-MB231 cells
Assay: in vitro autophosphorylation kinase assay on immunoprecipitated active ERK5, Western blot mobility-shift readout
Format: biochemical

T1 sequence (Q13164 2-816): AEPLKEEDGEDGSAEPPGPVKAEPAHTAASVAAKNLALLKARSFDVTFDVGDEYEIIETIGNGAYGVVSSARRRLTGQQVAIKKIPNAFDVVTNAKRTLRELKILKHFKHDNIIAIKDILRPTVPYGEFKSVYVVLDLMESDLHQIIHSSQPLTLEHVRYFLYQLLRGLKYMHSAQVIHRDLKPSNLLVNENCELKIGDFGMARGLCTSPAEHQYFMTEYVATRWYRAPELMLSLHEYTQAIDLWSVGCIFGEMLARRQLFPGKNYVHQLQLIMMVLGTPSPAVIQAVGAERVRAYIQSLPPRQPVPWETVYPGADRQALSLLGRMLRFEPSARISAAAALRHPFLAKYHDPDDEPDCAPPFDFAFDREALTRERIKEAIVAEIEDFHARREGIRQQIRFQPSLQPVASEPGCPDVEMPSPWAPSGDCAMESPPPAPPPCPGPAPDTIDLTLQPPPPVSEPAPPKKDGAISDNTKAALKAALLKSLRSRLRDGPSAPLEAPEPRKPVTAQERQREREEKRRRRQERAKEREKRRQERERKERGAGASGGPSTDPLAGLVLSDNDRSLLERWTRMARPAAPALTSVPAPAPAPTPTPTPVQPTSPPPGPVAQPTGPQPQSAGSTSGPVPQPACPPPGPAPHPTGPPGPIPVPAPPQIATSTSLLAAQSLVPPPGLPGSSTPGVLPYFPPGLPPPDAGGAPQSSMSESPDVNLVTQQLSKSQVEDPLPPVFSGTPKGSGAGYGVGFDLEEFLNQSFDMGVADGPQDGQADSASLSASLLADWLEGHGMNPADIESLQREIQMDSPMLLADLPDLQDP

IC50: 100 nM
Structure (SMILES): CN1C/C=C/CCOc2cccc(c2)-c2ccnc(n2)Nc2cccc(c2)C1 [TG02]
